Test results as given in patent US20070111251A1, “Chemical address tags” (priority 2003, published 2007).

Tested on: live UACC-62 human melanoma cells
Test: Organelle-binding test: subcellular localization of styryl library compounds by fluorescence microscopy
Format: cell-based
Parameters: key to experimentally determined localization (subscript): The subscript m indicates experimentally determined mitochondrial localization; The subscript o indicates experimentally determined non-mitochondrial localization
Details: FIG. 5, live UACC-62 cells
Experimental: The synthesis was designed so that the reaction mixture can be used directly in biological screening; toxic catalysts (e.g., such as strong acids, bases, and metals) were avoided, and most of the low-boiling point solvents and catalysts (e.g., pyrrolidine) were removed during the microwave reaction, leaving only DMSO, a common solvent for biological sample preparation. In some embodiments, without further purification, the library compounds were incubated with live UACC-62 human melanoma cells growing on glass bottom 96-well plates, and the localizations of the different compounds in the cells were determined using an Axiovert (Carl Zeiss, Inc., Thornwood, N.Y.) microscope (λex=405, 490, and 570 nm; λem>510 nm) with a 100× Zeiss oil immersion objective. […] The images in FIG. 5 show cells stained with selected fluorescent compounds.
Unless otherwise noted in this example, the materials and solvents were obtained from commercial suppliers and were used without further purification. The plate reader used in this example was a Spectra Max Gemini XSF (Molecular Devices, Corp., Sunnyvale, Calif.). In preferred embodiments, for organelle-binding tests, UACC-62 melanoma cells were selected amongst a panel of 60 human cancer cell lines, because their well-spread morphology on glass made them ideally suited for imaging purposes as well as their relevance to biomedical research. (See e.g., R. H. Shoemaker et al., Development of human tumor cell line panels for use in disease oriented drug screening. In: Hall, T. ed., Prediction of Response to Anti-cancer Chemotherapy, New York N.Y.: Alan Liss, 265-286 [1988]).
In some of these embodiments, UACC-62 cells (obtained from the Developmental Therapeutics Program at the National Cancer Institute) were grown in RPMI medium supplemented with 10% fetal calf serum. For microscopy, cells were plated on 96 well tissue-culture plates (Falcon) overnight, in RPMI plus 10% fetal calf serum, at 37° C. in 5% CO2/95% air. Cells were incubated with compounds at an approximate concentration of 50 μM for 1 hour.
A Zeiss Axiovert 135M (Carl Zeiss, Inc., Thornwood, N.Y.) inverted fluorescence microscope outfitted with a FITC/TRITC multipass filter cube (Chroma Technology, Corp., Rockingham, Vt.) was used for screening and routine cell biological fluorescence imaging applications. In some embodiments, epifluorescence microscopy was performed using a Zeiss Axiovert epifluorescence microscope equipped with a 20× objective.
The library compounds, without further purification, were incubated with live UACC-62 human melanoma cells growing on glass bottom 96-well plates (Sigma-Aldrich Corp., St. Louis, Mo.), and the localizations of the different compounds in the cells were determined by an inverted fluorescence microscope (λex=405, 490, and 570 nm; λem>510 nm) at 1000× magnification. Based on their morphology and subcellular distribution, the localizations were ascribed to mitochondria, ER (endoplasmic reticulum), nucleoli, nuclear, and cytoplasmic staining patterns such as diffuse (based on the homogenous staining appearance and exclusion from the nucleus), granular (punctate staining pattern, generally associated with the cell margins) or vesicular (heterogeneous staining pattern, generally associated with the nuclear periphery). Localization studies were performed without a priori information of the compounds' molecular structures. It was possible to ascribe the localization of the compounds to nucleus or cytoplasm, as these organelles are clearly discernible with phase contrast optics. Similarly, it was possible to ascribe localization to nucleoli, as these structures appeared as the most prominent, phase-dense structures within the nucleus. Localization to mitochondria was based on the elongated, characteristic shape of these organelles, which stain positive with established mitochondrial-specific fluorescent probes, like […] or JC-1. (L. B. Chen, Methods Cell Bio., 29:103-123 [1989]). […]

Compound | representative localization
COc1ccc2c(ccc(/C=C/c3ccc(N(C)C)cc3)[n+]2C)c1.[I-] [Compound 119] | nucleolar
COc1ccc2c(ccc(C=CC=Cc3ccc(N(C)C)cc3)[n+]2C)c1.[I-] [Compound 137] | cytosolic
C[n+]1ccc(C=Cc2ccc(OCc3ccccc3)c(OCc3ccccc3)c2)cc1.[I-] [Compound A12-B1] | mitochondria
C(=Cc1c[nH]c2ccccc12)c1cc[n+](C23CC4CC(CC(C4)C2)C3)cc1.[Br-] [Compound A24-B2] | mitochondria
Cc1ccnc(-c2cc(C=CC=Cc3ccc(N(C)C)cc3)cc[n+]2C)c1.[I-] [Compound A37-B10] | reticular
C[n+]1c(C=Cc2ccc(OCc3ccccc3)c(OCc3ccccc3)c2)ccc2ccccc21.[I-] [Compound H12] | vesicular
C[n+]1c(C=Cc2ccc3c(c2)Cc2ccccc2-3)ccc2ccccc21.[I-] [Compound H28] | nuclear

Same assay, conditions: mitochondrial vs non-mitochondrial, live UACC-62 cells

Compound | experimentally determined localization (subscript)
C[n+]1ccc(C=CCc2ccccc2)cc1.[I-] [Compound A1-B1] | o
C(=Cc1cc[n+](C23CC4CC(CC(C4)C2)C3)cc1)Cc1ccccc1.[Br-] [Compound A1-B2] | o
C[n+]1c(C=CCc2ccccc2)ccc2ccccc21.[I-] [Compound A1-B8] | m
COc1ccc2c(ccc(C=CCc3ccccc3)[n+]2C)c1.[I-] [Compound A1-B9] | m
Cc1ccnc(-c2cc(C=CCc3ccccc3)cc[n+]2C)c1.[I-] [Compound A1-B10] | m
COc1ccc(C=Cc2ccc3cc(OC)ccc3[n+]2C)cc1.[I-] [Compound A10-B9] | o
C[n+]1ccc(C=Cc2ccc(OCc3ccccc3)c(OCc3ccccc3)c2)cc1.[I-] [Compound A12-B1] | m
C[n+]1ccccc1C=Cc1ccc(OCc2ccccc2)c(OCc2ccccc2)c1.[I-] [Compound A12-B3] | m
CCc1ccc(C=Cc2ccc(OCc3ccccc3)c(OCc3ccccc3)c2)[n+](C)c1.[I-] [Compound A12-B5] | o
C[n+]1ccc(C=Cc2ccc(OCc3ccccc3)c(OCc3ccccc3)c2)c2ccccc21.[I-] [Compound A12-B7] | m
Cc1cccc(C=Cc2ccc(OCc3ccccc3)c(OCc3ccccc3)c2)[n+]1C.[I-] [Compound A12-B12] | o
Cc1cc(C)[n+](C)c(C=Cc2ccc(OCc3ccccc3)c(OCc3ccccc3)c2)c1.[I-] [Compound A12-B13] | o
COc1ccc(C=Cc2cc[n+](C34CC5CC(CC(C5)C3)C4)cc2)c2ccccc12.[Br-] [Compound A14-B2] | o
COc1ccc(C=Cc2ccc3ccccc3[n+]2C)cc1O.[I-] [Compound A15-B8] | m
Oc1ccc(C=Cc2cc[n+](C34CC5CC(CC(C5)C3)C4)cc2)cc1.[Br-] [Compound A16-B2] | m
CC(=O)Nc1ccc(C=Cc2ccc3ccccc3[n+]2C)cc1.[I-] [Compound A18-B8] | m
COc1ccc2c(ccc(C=Cc3ccc(NC(C)=O)cc3)[n+]2C)c1.[I-] [Compound A18-B9] | o
CN(C)c1ccc(C=Cc2ccc3ccccc3[n+]2C)cc1.[I-] [Compound A19-B8] | o
C[n+]1ccc(C=Cc2ccccc2[N+](=O)[O-])c2ccccc21.[I-] [Compound A20-B7] | m

Compound | experimentally determined localization (subscript)
C[n+]1c(C=Cc2cccc([N+](=O)[O-])c2)ccc2ccccc21.[I-] [Compound A21-B8] | m
COc1ccc2c(ccc(C=Cc3cccc([N+](=O)[O-])c3)[n+]2C)c1.[I-] [Compound A21-B9] | o
COc1ccc2ccccc2c1C=Cc1cc[n+](C)cc1.[I-] [Compound A23-B1] | m
COc1ccc2ccccc2c1C=Cc1cccc[n+]1C.[I-] [Compound A23-B3] | o
COc1ccc2ccccc2c1C=Cc1c(C)ccc[n+]1C.[I-] [Compound A23-B4] | o
C[n+]1ccc(C=Cc2c[nH]c3ccccc23)cc1.[I-] [Compound A24-B1] | o
C(=Cc1c[nH]c2ccccc12)c1cc[n+](C23CC4CC(CC(C4)C2)C3)cc1.[Br-] [Compound A24-B2] | m
Cc1cc[n+](C)c(/C=C/c2c[nH]c3ccccc23)c1.[I-] [Compound A24-B11] | m
CN(C)c1ccc(C=Cc2cc[n+](C)cc2)c2ccccc12.[I-] [Compound A27-B1] | o
CN(C)c1ccc(C=Cc2ccc3ccccc3[n+]2C)c2ccccc12.[I-] [Compound A27-B8] | m
Cc1ccnc(-c2cc(C=CC=Cc3ccccc3)cc[n+]2C)c1.[I-] [Compound A35-B10] | o
Cc1cccc(C=CC=Cc2ccccc2)[n+]1C.[I-] [Compound A35-B12] | m
Cc1ccc[n+](C)c1C=CC=Cc1ccc(N(C)C)cc1.[I-] [Compound A37-B4] | m
Cc1ccnc(-c2cc(C=CC=Cc3ccc(N(C)C)cc3)cc[n+]2C)c1.[I-] [Compound A37-B10] | o
COc1cc(OC)c(OC)cc1C=Cc1cc[n+](C23CC4CC(CC(C4)C2)C3)cc1.[Br-] [Compound A38-B2] | m
COc1cc(OC)c(OC)cc1C=Cc1cc[n+](C)c2ccccc12.[I-] [Compound A38-B7] | o
COc1cc(OC)c(OC)cc1C=Cc1cc[n+](C)c(-c2cc(C)ccn2)c1.[I-] [Compound A38-B10] | m
C[n+]1c(C=Cc2ccc3c(c2)OCO3)ccc2ccccc21.[I-] [Compound A39-B8] | o
